Results as given in patent US7652061B2, “N-acyl nitrogen heterocycles as ligands of peroxisome proliferator-activated receptors” (Novartis A.G., priority 2003, dated 2010).

Columns and labels:
[1] = target: T1, hPPARα ligand binding domain (GST-hPPARα LBD) (Homo sapiens, UniProt Q07869); assay: PPARα functional binding assay (CARLA, TR-FRET); assay type: biochemical; settings: SRC-1 peptide recruitment, 3 hours at RT, read-out: EC50 in the PPARα receptor binding assay
T1 construct: made in house; host or cells: E. coli BL21(DE3), pGEX vector
T1 sequence (Q07869 167-468): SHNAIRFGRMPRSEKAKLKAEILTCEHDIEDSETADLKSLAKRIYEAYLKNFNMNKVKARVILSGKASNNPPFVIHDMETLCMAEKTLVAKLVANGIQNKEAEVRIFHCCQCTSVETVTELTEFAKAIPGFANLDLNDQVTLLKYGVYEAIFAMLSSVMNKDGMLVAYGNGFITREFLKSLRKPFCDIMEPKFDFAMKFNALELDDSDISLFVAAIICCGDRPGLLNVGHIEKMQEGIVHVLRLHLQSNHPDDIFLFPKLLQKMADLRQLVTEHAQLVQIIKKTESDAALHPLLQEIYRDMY
Procedure: (§1) The in vitro functional binding to the PPARα, PPARδ and PPARγ receptors is determined as follows:
(§2) The functional binding assays for the PPARα, PPARδ and PPARγ receptors are a variation of the coactivator-dependent receptor ligand assay (CARLA) (see Krey et al., “Fatty Acids, Eicosanoids, and Hypolipidemic Agents Identified as Ligands of Peroxisome Proliferator-Activated Receptors by Coactivator-Dependent Receptor Ligand Assay”, Molecular Endocrinology, Vol. 11, pp. 779-791 (1997)). The present CARLA assays use a TR-FRET detection method previously reviewed (see Hemmila, “LANCE: Homogeneous Assay Plafform for HTS”, J. Biomol. Screening, Vol. 4, pp. 303-307 (1999); Mathis, “HTRF Technology”, J. Biomol. Screening, Vol. 4, pp. 309-313 (1999)). […] This brings the Eu-labeled anti-GST antibody and the strepavidin-labeled APC in close proximity, thereby facilitating fluorescence energy transfer. […] After mixing all components, the reaction mixture stands for 3 hours at RT before reading the TR-FRET (Time-Resolved Fluorescence Resonance Energy Transfer) signal on a Wallac Victor 2 plate reader (measuring the ratio of signals at […]). […]

[2] = target: T2, hPPARγ ligand binding domain (GST-hPPARγ LBD) (Homo sapiens, UniProt P37231); assay: PPARγ functional binding assay (CARLA, TR-FRET); assay type: biochemical; settings: SRC-1 peptide recruitment, 3 hours at RT, read-out: EC50 in the PPARγ receptor binding assay
T2 construct: GST-hPPARγ LBD (amino acids 175-476); made in house; host or cells: E. coli BL21(DE3), pGEX vector
T2 sequence (P37231 175-476 isoform P37231-2): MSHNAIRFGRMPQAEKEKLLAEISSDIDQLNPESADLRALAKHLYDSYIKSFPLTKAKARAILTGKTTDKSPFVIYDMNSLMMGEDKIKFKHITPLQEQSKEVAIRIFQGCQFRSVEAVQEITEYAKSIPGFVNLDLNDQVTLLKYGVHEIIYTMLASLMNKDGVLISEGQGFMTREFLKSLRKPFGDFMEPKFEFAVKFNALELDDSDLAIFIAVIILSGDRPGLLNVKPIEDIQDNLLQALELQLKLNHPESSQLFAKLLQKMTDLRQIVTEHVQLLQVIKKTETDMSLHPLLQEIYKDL
Procedure: as §1, §2

- EC50 [1]: ~0.003 µM
- EC50 [2]: ~1.8 µM
Structure (SMILES): Cc1oc(-c2ccc(Cl)c(F)c2)nc1COc1cccc(C(C)(C)C(=O)N2CCC[C@@H]2C(=O)O)c1 [Example 9, (R)-1-(2-{3-[2-(4-Chloro-3-fluoro-phenyl)-5-methyl-oxazol-4-yl-methoxy]-phenyl}-2-methyl-propionyl)-pyrrolidine-2-carboxylic acid]
